This passage reports IC50 results from patent publication US20240409585A1, “MACROCYCLIC IMMUNOMODULATORS” (priority 2021, published 2024).

Bridge positions count the residues as written; N and C are the ends. Square brackets hold non-standard residues; d marks the D form. Peptide text beside a SMILES is read from it. * marks the point of attachment. Bip(4'-COOH) = N[C@@H](Cc1ccc(-c2ccc(C(=O)O)cc2)cc1)C(=O)O; Bip(4'-NHAc) = CC(=O)Nc1ccc(-c2ccc(C[C@H](N)C(=O)O)cc2)cc1; Phe(3-CF3) = N[C@@H](Cc1cccc(C(F)(F)F)c1)C(=O)O; Ala(morpholin-4-yl) = N[C@@H](CN1CCOCC1)C(=O)O; Phe(4-COOH) = N[C@@H](Cc1ccc(C(=O)O)cc1)C(=O)O; Bip = N[C@@H](Cc1ccc(-c2ccccc2)cc1)C(=O)O; Abu(3R-NH2) = C[C@@H](N)[C@H](N)C(=O)O; Phe(3-Me) = Cc1cccc(C[C@H](N)C(=O)O)c1; Val(3-OH) = CC(C)(O)[C@H](N)C(=O)O; Ala(cPr) = N[C@@H](CC1CC1)C(=O)O; hPhe = N[C@@H](CCc1ccccc1)C(=O)O; Cha = N[C@@H](CC1CCCCC1)C(=O)O; Carboxymethyl = O=C(O)C*; NMeA = CN[C@@H](C)C(=O)O; Orn = NCCC[C@H](N)C(=O)O; Dab = NCC[C@H](N)C(=O)O

T1 sequence (Q15116 25-288): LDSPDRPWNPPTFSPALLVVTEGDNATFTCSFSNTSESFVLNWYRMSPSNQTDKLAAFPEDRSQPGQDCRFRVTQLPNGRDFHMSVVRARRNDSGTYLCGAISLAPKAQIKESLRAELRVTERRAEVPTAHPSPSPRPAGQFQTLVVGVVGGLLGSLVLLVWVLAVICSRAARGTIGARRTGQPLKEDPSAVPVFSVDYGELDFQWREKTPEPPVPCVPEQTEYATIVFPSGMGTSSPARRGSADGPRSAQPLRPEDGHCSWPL

The first experiment has as its target T1, Alexa fluor-647 labeled human PD-L1-Ig binding to Jurkat cell line over-expressing human PD-1 (Homo sapiens, UniProt Q15116).
T1 construct: expressed in transfected cells; host or cells: Jurkat
Kind of experiment: Jurkat-PD-1 Cell Binding High-Content Screening Assay (CBA): Method 3 (Alexa fluor-647 labeled PD-L1-Ig). As to conditions: Jurkat-PD-1 cells, Alexa fluor-647 labeled PD-L1-Ig 177 nM; head μM; read-out: CBA Method 3 μM. The procedure, abridged:
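Readout by high-content imaging of PFA-fixed, Hoechst-stained cells after 1 h with 177 nM (final) Alexa fluor-647 PD-L1-Ig. Compound was added first to hPD-1 Jurkat cells in RPMI plus 10% FCS for 2 h at 37 °C.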
On to `Cc1cccc(C[C@@H]2NC(=O)[C@H](CC(=O)O)NC(=O)[C@H](Cc3ccc(-c4ccc(C(=O)O)cc4)cc3)NC(=O)[C@H](CN3CCOCC3)NC(=O)CSC[C@@H](C(=O)N[C@@H](CCN)C(N)=O)NC(=O)[C@H](CCC(=O)O)NC(=O)[C@H](C(C)C)NC(=O)[C@H](CC3CCCCC3)NC(=O)[C@H](CC(N)=O)NC(=O)[C@@H](CC(C)C)NC(=O)[C@H](C)N(C)C(=O)[C@H](Cc3ccc(OCC(=O)O)cc3)NC(=O)[C@H](Cc3ccc(-c4ccccc4)cc3)NC(=O)[C@H](Cc3ccc(-c4ccc(C(=O)O)cc4)cc3)NC2=O)c1` [Example 5128] ({CH2CO}-[Ala(morpholin-4-yl)][Bip(4'-COOH)]D[Phe(3-Me)][Bip(4'-COOH)][Bip]Y(Carboxymethyl)[NMeA][dL]N[Cha]VEC[Dab]-NH2; thioether N-14), for which the IC50 was 0.03 µM. The same measure, in the same setting: next, `Cc1cccc(C[C@@H]2NC(=O)[C@H](CC(=O)O)NC(=O)[C@H](Cc3ccc(C(=O)O)cc3)NC(=O)[C@H](CN3CCOCC3)NC(=O)CSC[C@@H](C(=O)N[C@@H](CCN)C(N)=O)NC(=O)[C@H](CCC(N)=O)NC(=O)[C@H](C(C)C)NC(=O)[C@H](CC3CCCCC3)NC(=O)[C@H](CCN)NC(=O)[C@@H](CC(C)C)NC(=O)[C@H](C)N(C)C(=O)[C@H](Cc3ccc(C(=O)O)cc3)NC(=O)[C@H](Cc3ccc(-c4ccccc4)cc3)NC(=O)[C@H](Cc3ccc(C(=O)O)cc3)NC2=O)c1` [Example 5260] ({CH2CO}-[Ala(morpholin-4-yl)][Phe(4-COOH)]D[Phe(3-Me)][Phe(4-COOH)][Bip][Phe(4-COOH)][NMeA][dL][Dab][Cha]VQC[Dab]-NH2; thioether N-14): 0.09 µM. The same measure, in the same setting: then `Cc1cccc(C[C@@H]2NC(=O)[C@H](CC(=O)O)NC(=O)[C@H](Cc3ccc(OCC(=O)O)cc3)NC(=O)[C@H](CC3CCCCC3)NC(=O)CSC[C@@H](C(=O)N[C@@H](CCN)C(N)=O)NC(=O)[C@H](CCCN)NC(=O)[C@H](C(C)C)NC(=O)[C@H](CC3CC3)NC(=O)[C@H](CCN)NC(=O)[C@@H](CC(C)C)NC(=O)[C@H](C)N(C)C(=O)[C@H](CCC(N)=O)NC(=O)[C@H](Cc3ccc(-c4ccccc4)cc3)NC(=O)[C@H](Cc3ccc(C(=O)O)cc3)NC2=O)c1` [Example 5192] ({CH2CO}-[Cha]Y(Carboxymethyl)D[Phe(3-Me)][Phe(4-COOH)][Bip]Q[NMeA][dL][Dab][Ala(cPr)]V[Orn]C[Dab]-NH2; thioether N-14), with 0.15 µM. The same measure, in the same setting: next, `CC(=O)Nc1ccc(-c2ccc(C[C@@H]3NC(=O)[C@H](Cc4cccc(C(F)(F)F)c4)NC(=O)[C@H](CC(=O)O)NC(=O)[C@H](Cc4ccc(-c5ccc(C(=O)O)cc5)cc4)NC(=O)[C@H](CN4CCOCC4)NC(=O)CSC[C@@H](C(=O)N[C@@H](CCN)C(N)=O)NC(=O)[C@H](CCC(N)=O)NC(=O)[C@H](C(C)(C)O)NC(=O)[C@H](CC4CCCCC4)NC(=O)[C@H](CCN)NC(=O)[C@@H](CC(C)C)NC(=O)[C@H](C)N(C)C(=O)[C@H](Cc4ccc(C(=O)O)cc4)NC(=O)[C@H](Cc4ccc(-c5ccccc5)cc4)NC3=O)cc2)cc1` [Example 5296] ({CH2CO}-[Ala(morpholin-4-yl)][Bip(4'-COOH)]D[Phe(3-CF3)][Bip(4'-NHAc)][Bip][Phe(4-COOH)][NMeA][dL][Dab][Cha][Val(3-OH)]QC[Dab]-NH2; thioether N-14): 0.02 µM; `CC(C)C[C@H]1NC(=O)[C@H](C)N(C)C(=O)[C@H](CCC(N)=O)NC(=O)[C@H](Cc2ccc(-c3ccccc3)cc2)NC(=O)[C@H](Cc2ccc(OCC(=O)O)cc2)NC(=O)[C@H](Cc2cccc(C(F)(F)F)c2)NC(=O)[C@H](CC(=O)O)NC(=O)[C@H](Cc2ccc(O)cc2)NC(=O)[C@H](CC2CCCCC2)NC(=O)CSC[C@@H](C(=O)N[C@@H](CCN)C(N)=O)NC(=O)[C@H](CCCN)NC(=O)[C@H](C(C)C)NC(=O)[C@H](CC2CCCCC2)NC(=O)[C@H](CCN)NC1=O` [Example 5238] ({CH2CO}-[Cha]YD[Phe(3-CF3)]Y(Carboxymethyl)[Bip]Q[NMeA][dL][Dab][Cha]V[Orn]C[Dab]-NH2; thioether N-14): 0.01 µM.

Still in this experiment, the particulars now being: Jurkat-PD-1 cells, Alexa fluor-647 labeled PD-L1-Ig 177 nM; nM; read-out: CBA Method 3.
`CC(C)C[C@H]1NC(=O)[C@H](C)N(C)C(=O)[C@H](CCC(N)=O)NC(=O)[C@H](Cc2ccc(-c3ccccc3)cc2)NC(=O)[C@H](Cc2ccc(OCC(=O)O)cc2)NC(=O)[C@H](Cc2cccc(C(F)(F)F)c2)NC(=O)[C@H](CC(=O)O)NC(=O)[C@H](CCC(N)=O)NC(=O)[C@H]([C@@H](C)N)NC(=O)CSC[C@@H](C(=O)N[C@@H](CCN)C(N)=O)NC(=O)[C@H](CCCN)NC(=O)[C@H](C(C)C)NC(=O)[C@H](CC2CCCCC2)NC(=O)[C@H](CCN)NC1=O` [Example 5249] ({CH2CO}-[Abu(3R-NH2)]QD[Phe(3-CF3)]Y(Carboxymethyl)[Bip]Q[NMeA][dL][Dab][Cha]V[Orn]C[Dab]-NH2; thioether N-14): the IC50 amounted to 0.0019 µM.

In the case of `CC(C)C[C@H]1NC(=O)[C@H](C)N(C)C(=O)[C@H](CCC(N)=O)NC(=O)[C@H](Cc2ccc(-c3ccccc3)cc2)NC(=O)[C@H](CCc2ccccc2)NC(=O)[C@H](Cc2cccc(C(F)(F)F)c2)NC(=O)[C@H](CC(=O)O)NC(=O)[C@H](Cc2ccc(OCC(=O)O)cc2)NC(=O)[C@H](CN2CCOCC2)NC(=O)CSC[C@@H](C(=O)N[C@@H](CCN)C(N)=O)NC(=O)[C@H](CCCN)NC(=O)[C@H](C(C)C)NC(=O)[C@H](CC2CCCCC2)NC(=O)[C@H](CCN)NC1=O` [Example 5216] ({CH2CO}-[Ala(morpholin-4-yl)]Y(Carboxymethyl)D[Phe(3-CF3)][hPhe][Bip]Q[NMeA][dL][Dab][Cha]V[Orn]C[Dab]-NH2; thioether N-14), the IC50 is 0.006 µM. Still for that read-out and setting: then `CC[C@H](C)[C@@H]1NC(=O)CSC[C@@H](C(=O)N[C@@H](CCN)C(N)=O)NC(=O)[C@H](CCCN)NC(=O)[C@H](C(C)C)NC(=O)[C@H](CC2CCCCC2)NC(=O)[C@H](CCN)NC(=O)[C@@H](CC(C)C)NC(=O)[C@H](C)N(C)C(=O)[C@H](CCC(N)=O)NC(=O)[C@H](Cc2ccc(-c3ccccc3)cc2)NC(=O)[C@H](Cc2ccc(C(=O)O)cc2)NC(=O)[C@H](Cc2cccc(C)c2)NC(=O)[C@H](CC(=O)O)NC(=O)[C@H](Cc2ccc(OCC(=O)O)cc2)NC1=O` [Example 5268] ({CH2CO}-IY(Carboxymethyl)D[Phe(3-Me)][Phe(4-COOH)][Bip]Q[NMeA][dL][Dab][Cha]V[Orn]C[Dab]-NH2; thioether N-14), with 0.0053 µM; and `CC(C)C[C@H]1NC(=O)[C@H](C)N(C)C(=O)[C@H](Cc2ccc(C(=O)O)cc2)NC(=O)[C@H](Cc2ccc(-c3ccccc3)cc2)NC(=O)[C@H](CCc2ccccc2)NC(=O)[C@H](Cc2cccc(C(F)(F)F)c2)NC(=O)[C@H](CC(=O)O)NC(=O)[C@H](Cc2ccc(C(=O)O)cc2)NC(=O)[C@H](CN2CCOCC2)NC(=O)CSC[C@@H](C(=O)N[C@@H](CCN)C(N)=O)NC(=O)[C@H](CCC(N)=O)NC(=O)[C@H](C(C)C)NC(=O)[C@H](CC2CCCCC2)NC(=O)[C@H](CCN)NC1=O` [Example 5204] ({CH2CO}-[Ala(morpholin-4-yl)][Phe(4-COOH)]D[Phe(3-CF3)][hPhe][Bip][Phe(4-COOH)][NMeA][dL][Dab][Cha]VQC[Dab]-NH2; thioether N-14), with 0.0065 µM. With `Cc1cccc(C[C@@H]2NC(=O)[C@H](CC(=O)O)NC(=O)[C@H](Cc3ccc(OCC(=O)O)cc3)NC(=O)[C@H](Cc3ccccc3)NC(=O)CSC[C@@H](C(=O)N[C@@H](CCN)C(N)=O)NC(=O)[C@H](CCCN)NC(=O)[C@H](C(C)C)NC(=O)[C@H](CC3CCCCC3)NC(=O)[C@H](CCN)NC(=O)[C@@H](CC(C)C)NC(=O)[C@H](C)N(C)C(=O)[C@H](CCC(N)=O)NC(=O)[C@H](Cc3ccc(-c4ccccc4)cc3)NC(=O)[C@H](Cc3ccc(C(=O)O)cc3)NC2=O)c1` [Example 5267] ({CH2CO}-FY(Carboxymethyl)D[Phe(3-Me)][Phe(4-COOH)][Bip]Q[NMeA][dL][Dab][Cha]V[Orn]C[Dab]-NH2; thioether N-14), the IC50 was determined as 0.0012 µM. `Cc1cccc(C[C@@H]2NC(=O)[C@H](CC(=O)O)NC(=O)[C@H](Cc3ccc(C(=O)O)cc3)NC(=O)[C@H](CC3CCCCC3)NC(=O)CSC[C@@H](C(=O)N[C@@H](CCN)C(N)=O)NC(=O)[C@H](CCC(=O)O)NC(=O)[C@H](C(C)C)NC(=O)[C@H](CC3CCCCC3)NC(=O)[C@H](CCN)NC(=O)[C@@H](CC(C)C)NC(=O)[C@H](C)N(C)C(=O)[C@H](Cc3ccc(C(=O)O)cc3)NC(=O)[C@H](Cc3ccc(-c4ccccc4)cc3)NC(=O)[C@H](Cc3ccc(OCC(=O)O)cc3)NC2=O)c1` [Example 5201] ({CH2CO}-[Cha][Phe(4-COOH)]D[Phe(3-Me)]Y(Carboxymethyl)[Bip][Phe(4-COOH)][NMeA][dL][Dab][Cha]VEC[Dab]-NH2; thioether N-14): the IC50 stood at 0.0062 µM. On the same count and under the same terms, then `CC(C)C[C@H]1NC(=O)[C@H](C)N(C)C(=O)[C@H](CCC(N)=O)NC(=O)[C@H](Cc2ccc(-c3ccccc3)cc2)NC(=O)[C@H](CCc2ccccc2)NC(=O)[C@H](Cc2cccc(C(F)(F)F)c2)NC(=O)[C@H](CC(=O)O)NC(=O)[C@H](Cc2ccc(O)cc2)NC(=O)[C@H]([C@@H](C)N)NC(=O)CSC[C@@H](C(=O)N[C@@H](CCN)C(N)=O)NC(=O)[C@H](CCC(N)=O)NC(=O)[C@H](C(C)C)NC(=O)[C@H](CC2CCCCC2)NC(=O)[C@H](CCN)NC1=O` [Example 5242] ({CH2CO}-[Abu(3R-NH2)]YD[Phe(3-CF3)][hPhe][Bip]Q[NMeA][dL][Dab][Cha]VQC[Dab]-NH2; thioether N-14), with 0.0021 µM.
